# Results from paper PMC11790914, “Chemogenomics for steroid hormone receptors (NR3)” (Communications Chemistry, 2025).
# Where “and” joins values, the source holds several entries; their conditions need not be identical. Equal values may be shown once.
# Experiments:
# [1] = tested on: NF-κB activity in HEK293 NF-κB reporter cells; assay: NF-kB activity assay (GFP reporter, ionomycin/PMA); assay type: cell-based; details: n=3
# Summary of the method: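 HEK293 NF-κB GFP reporter cells given compound in 0.1% DMSO for 4 h, then stimulated with ionomycin 100 ng/mL plus PMA 10 ng/mL. Imaged every 90 min over 24 h; GFP-positive cell count normalized to confluence, three independent biological replicates.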
# FGFR3 = target: T1, FGFR3 (Homo sapiens, UniProt P22607); assay: Liability panel screening by DSF: FGFR3; assay type: binding; details: DSF, 20 µM, n=2; read-out: Mean ΔTM FGFR3
# T1 construct: made in house
# Summary of the method: (§1)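 Thermal shift: in-house recombinant protein at 2 µM in 10 mM HEPES pH 7.5 with 500 mM NaCl, SYPRO Orange 1:1000, heated at 3 °C/min to 85 °C in technical duplicates. Tm is the Boltzmann inflection point, reported as ∆Tm in K.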
# MAPK1 = target: T2, MAPK1 (Homo sapiens, UniProt P28482); assay: Liability panel screening by DSF: MAPK1; assay type: binding; details: DSF, 20 µM, n=2; read-out: Mean ΔTM MAPK1
# T2 construct: made in house
# Summary of the method: as §1
# BRD4 = target: T3, BRD4 (Homo sapiens, UniProt O60885); assay: Liability panel screening by DSF: BRD4; assay type: binding; details: DSF, 20 µM, n=2; read-out: Mean ΔTM BRD4
# T3 construct: This panel comprised ten highly ligandable kinases and bromodomains; made in house
# Summary of the method: as §1
# HEK293T cells [2] = assay: Cytotoxicity: growth-rate (change in confluence over 24 h); details: normalized to 0.1% DMSO control, single replicates (n=1...)
# CDK2 = target: T4, CDK2 (Homo sapiens, UniProt P24941); assay: Liability panel screening by DSF: CDK2; assay type: binding; details: DSF, 20 µM, n=2; read-out: Mean ΔTM CDK2
# T4 construct: made in house
# Summary of the method: as §1
# HEK293T cells [3] = assay: Cytotoxicity: necrosis induction (red fluorescent dye for permeable plasma membranes); assay type: cell-based; details: 24 h, necrotic cell count normalized to 0.1% DMSO, single replicates;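 note: compounds applied in DMEM high glucose with 0.1% FCS and 0.1% DMSO, necrotic HEK293T cells counted by red staining of cells whose plasma membranes had become permeable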
# HEK293T cells [4] = assay: Cytotoxicity: apoptosis induction (caspase-3/7 DEVD fluorogenic DNA dye); details: HEK293T, 24 h, apoptotic cell count normalized to 0.1% DMSO, single replicates
# HEK293T cells [5] = assay: Cytotoxicity: metabolic activity (WST-8 / CCK-8 assay); details: HEK293T, 24 h, WST-8, normalized to 0.1% DMSO, single replicates
# TRIM24 = target: T5, TRIM24 (Homo sapiens, UniProt O15164); assay: Liability panel screening by DSF: TRIM24; assay type: binding; details: DSF, 20 µM, n=2; read-out: Mean ΔTM TRIM24
# T5 construct: This panel comprised ten highly ligandable kinases and bromodomains; made in house
# T5 sequence (O15164 899-1004 limits assumed): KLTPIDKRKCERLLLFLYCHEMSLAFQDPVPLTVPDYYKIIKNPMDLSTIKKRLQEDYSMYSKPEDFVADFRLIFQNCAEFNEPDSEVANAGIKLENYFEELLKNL
# Summary of the method: as §1
# [6] = tested on: ATF6 activity in Hela ATF6 reporter cells; assay: Endoplasmic reticulum stress assay (ATF6 Renilla luciferase reporter, tunicamycin); assay type: cell-based
# Summary of the method: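 HeLa ATF6 Renilla reporter cells were pretreated 4 h with compounds in 0.1% DMSO, then stimulated with tunicamycin (100 ng/mL) for 18 h. Renilla luminescence (DualGlo) was normalized to 0.1% DMSO control; five independent experiments.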
# BRPF1 = target: T6, BRPF1 (Homo sapiens, UniProt P55201); assay: Liability panel screening by DSF: BRPF1; assay type: binding; details: DSF, 20 µM, n=2; read-out: Mean ΔTM BRPF1
# T6 construct: This panel comprised ten highly ligandable kinases and bromodomains; made in house
# T6 sequence (P55201 628-732 limits assumed): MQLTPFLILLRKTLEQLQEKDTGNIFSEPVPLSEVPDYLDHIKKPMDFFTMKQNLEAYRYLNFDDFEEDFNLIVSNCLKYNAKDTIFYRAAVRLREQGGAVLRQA
# Summary of the method: as §1
# ABL1 = target: T7, ABL1 (Homo sapiens, UniProt P00519); assay: Liability panel screening by DSF: ABL1; assay type: binding; details: DSF, 20 µM, n=2; read-out: Mean ΔTM ABL1
# T7 construct: made in house
# Summary of the method: as §1
# NR3B3 (ERRγ) = details: ref Supplementary Table 1, cited from earlier work
# AURKA = target: T8, AURKA (Homo sapiens, UniProt O14965); assay: Liability panel screening by DSF: AURKA; assay type: binding; details: DSF, 20 µM, n=2; read-out: Mean ΔTM AURKA
# T8 construct: made in house
# T8 sequence (O14965 1-403): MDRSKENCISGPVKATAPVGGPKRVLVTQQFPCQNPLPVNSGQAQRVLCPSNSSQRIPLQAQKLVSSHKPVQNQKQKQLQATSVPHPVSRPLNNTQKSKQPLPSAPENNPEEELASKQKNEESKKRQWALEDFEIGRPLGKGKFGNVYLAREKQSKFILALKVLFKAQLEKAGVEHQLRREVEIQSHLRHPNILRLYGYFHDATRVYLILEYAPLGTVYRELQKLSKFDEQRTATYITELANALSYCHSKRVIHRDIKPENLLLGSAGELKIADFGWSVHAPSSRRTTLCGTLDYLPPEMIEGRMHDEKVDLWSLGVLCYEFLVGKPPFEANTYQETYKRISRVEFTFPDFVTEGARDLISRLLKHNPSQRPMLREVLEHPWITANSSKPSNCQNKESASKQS
# Summary of the method: as §1
# CSNK1D = target: T9, CSNK1D (Homo sapiens, UniProt P48730); assay: Liability panel screening by DSF: CSNK1D; assay type: binding; details: DSF, 20 µM, n=2; read-out: Mean ΔTM CSNK1D
# T9 construct: made in house
# Summary of the method: as §1
# Gal4-VP16 = assay type: cell-based; details: 3 µM; vs. DMSO ctrl; single replicates n=1-3
# GSK3B = target: T10, GSK3B (Homo sapiens, UniProt P49841); assay: Liability panel screening by DSF: GSK3B; assay type: binding; details: DSF, 20 µM, n=2; read-out: Mean ΔTM GSK3B
# T10 construct: made in house
# NR3B2 (ERRβ) = details: ref Supplementary Table 1; cited from earlier work
# T7 sequence (P00519 whole entry, species assumed): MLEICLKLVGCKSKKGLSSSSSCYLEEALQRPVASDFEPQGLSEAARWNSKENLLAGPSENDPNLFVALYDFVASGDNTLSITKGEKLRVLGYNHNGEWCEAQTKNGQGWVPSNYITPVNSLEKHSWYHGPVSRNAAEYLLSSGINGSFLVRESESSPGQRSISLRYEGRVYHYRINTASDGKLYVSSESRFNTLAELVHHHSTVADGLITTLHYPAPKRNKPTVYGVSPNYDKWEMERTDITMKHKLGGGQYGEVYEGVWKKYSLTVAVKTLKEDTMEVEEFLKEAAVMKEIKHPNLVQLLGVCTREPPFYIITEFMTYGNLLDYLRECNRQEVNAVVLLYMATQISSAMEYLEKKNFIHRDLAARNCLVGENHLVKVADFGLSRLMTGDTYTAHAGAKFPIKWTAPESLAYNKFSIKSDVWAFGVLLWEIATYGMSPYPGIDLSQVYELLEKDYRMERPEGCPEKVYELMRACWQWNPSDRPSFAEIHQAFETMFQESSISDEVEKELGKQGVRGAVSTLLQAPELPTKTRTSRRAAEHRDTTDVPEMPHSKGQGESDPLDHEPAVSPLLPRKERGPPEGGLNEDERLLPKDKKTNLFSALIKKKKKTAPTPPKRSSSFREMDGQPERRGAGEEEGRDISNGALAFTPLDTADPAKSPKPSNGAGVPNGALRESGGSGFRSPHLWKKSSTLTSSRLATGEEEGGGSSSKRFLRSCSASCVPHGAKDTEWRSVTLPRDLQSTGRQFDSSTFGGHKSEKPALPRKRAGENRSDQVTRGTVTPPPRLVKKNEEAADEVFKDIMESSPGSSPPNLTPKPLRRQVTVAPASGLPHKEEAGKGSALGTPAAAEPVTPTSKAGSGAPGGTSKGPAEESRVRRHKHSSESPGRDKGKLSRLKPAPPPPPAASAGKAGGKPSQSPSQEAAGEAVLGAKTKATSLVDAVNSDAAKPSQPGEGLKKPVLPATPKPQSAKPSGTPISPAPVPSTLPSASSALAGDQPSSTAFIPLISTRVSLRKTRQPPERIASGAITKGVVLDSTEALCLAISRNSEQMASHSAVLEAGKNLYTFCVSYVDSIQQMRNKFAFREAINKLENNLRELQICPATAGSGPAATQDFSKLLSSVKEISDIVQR
# T2 sequence (P28482 whole entry, species assumed): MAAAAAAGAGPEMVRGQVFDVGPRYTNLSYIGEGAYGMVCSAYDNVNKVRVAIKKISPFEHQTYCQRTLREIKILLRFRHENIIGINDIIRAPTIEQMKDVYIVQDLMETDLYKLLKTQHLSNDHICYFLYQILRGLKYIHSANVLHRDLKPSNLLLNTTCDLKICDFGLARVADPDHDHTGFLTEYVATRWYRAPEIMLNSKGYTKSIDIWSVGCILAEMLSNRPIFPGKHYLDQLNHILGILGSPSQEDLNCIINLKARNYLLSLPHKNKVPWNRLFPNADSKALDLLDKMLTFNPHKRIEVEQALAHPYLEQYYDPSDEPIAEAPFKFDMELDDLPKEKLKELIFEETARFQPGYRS
# T1 sequence (P22607 23-806, species assumed): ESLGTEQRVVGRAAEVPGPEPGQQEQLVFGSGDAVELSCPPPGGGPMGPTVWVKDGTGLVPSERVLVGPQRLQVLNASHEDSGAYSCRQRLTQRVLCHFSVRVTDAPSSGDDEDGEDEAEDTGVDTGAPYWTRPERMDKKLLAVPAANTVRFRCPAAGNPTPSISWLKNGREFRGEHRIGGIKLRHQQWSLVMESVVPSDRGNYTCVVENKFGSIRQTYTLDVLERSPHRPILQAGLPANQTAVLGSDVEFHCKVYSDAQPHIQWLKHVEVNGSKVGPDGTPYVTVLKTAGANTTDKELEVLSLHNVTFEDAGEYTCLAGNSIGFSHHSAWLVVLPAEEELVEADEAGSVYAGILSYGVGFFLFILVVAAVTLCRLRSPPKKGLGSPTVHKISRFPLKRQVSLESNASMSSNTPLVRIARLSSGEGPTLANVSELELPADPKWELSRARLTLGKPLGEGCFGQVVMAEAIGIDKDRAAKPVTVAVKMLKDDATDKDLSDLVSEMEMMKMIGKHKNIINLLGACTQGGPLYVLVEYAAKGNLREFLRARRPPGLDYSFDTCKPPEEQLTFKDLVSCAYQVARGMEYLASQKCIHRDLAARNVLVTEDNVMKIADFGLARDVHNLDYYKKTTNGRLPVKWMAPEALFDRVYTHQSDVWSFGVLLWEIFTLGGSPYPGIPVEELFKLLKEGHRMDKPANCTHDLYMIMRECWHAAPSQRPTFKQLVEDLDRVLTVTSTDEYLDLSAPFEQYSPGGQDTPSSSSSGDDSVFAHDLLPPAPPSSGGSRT
# T9 sequence (P48730 whole entry, species assumed): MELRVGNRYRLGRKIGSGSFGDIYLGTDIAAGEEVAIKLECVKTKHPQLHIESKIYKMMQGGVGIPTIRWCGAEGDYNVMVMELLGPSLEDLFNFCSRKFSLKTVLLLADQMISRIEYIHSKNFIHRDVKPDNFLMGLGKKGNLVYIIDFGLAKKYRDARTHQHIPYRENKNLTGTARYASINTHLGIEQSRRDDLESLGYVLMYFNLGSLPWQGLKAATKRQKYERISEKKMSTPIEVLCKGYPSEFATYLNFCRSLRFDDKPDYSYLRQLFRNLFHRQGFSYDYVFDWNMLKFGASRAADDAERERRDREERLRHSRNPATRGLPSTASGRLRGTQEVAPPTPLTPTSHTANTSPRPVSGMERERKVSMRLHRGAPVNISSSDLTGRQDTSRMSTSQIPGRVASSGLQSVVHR
# T10 sequence (P49841 whole entry, species assumed): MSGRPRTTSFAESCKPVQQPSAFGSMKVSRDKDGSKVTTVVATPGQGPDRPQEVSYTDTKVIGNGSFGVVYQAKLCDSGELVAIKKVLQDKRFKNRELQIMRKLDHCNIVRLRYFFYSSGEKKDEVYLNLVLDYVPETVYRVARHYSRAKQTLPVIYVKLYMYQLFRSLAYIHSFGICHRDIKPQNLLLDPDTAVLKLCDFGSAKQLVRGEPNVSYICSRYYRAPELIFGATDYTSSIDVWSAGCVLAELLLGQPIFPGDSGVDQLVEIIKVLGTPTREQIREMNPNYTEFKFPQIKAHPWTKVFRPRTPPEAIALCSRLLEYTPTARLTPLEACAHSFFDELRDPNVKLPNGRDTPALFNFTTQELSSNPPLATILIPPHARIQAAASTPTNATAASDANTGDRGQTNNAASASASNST
smiles,measurement,setting,value
CC(C)(c1ccc(O)cc1)c1ccc(O)cc1 [Bisphenol A],Mean NFκB response,"[1]; 0.3 µM, 1,5 h",2380.54 GFP+-cells/confluence ∙ 1000
same,Mean NFκB response,"[1]; 0.3 µM, 4,5 h",2758.19 GFP+-cells/confluence ∙ 1000
same,Mean NFκB response,"[1]; 0.3 µM, 7,5 h",7233.84 GFP+-cells/confluence ∙ 1000
same,Mean NFκB response,"[1]; 0.3 µM, 10,5 h",19121.46 GFP+-cells/confluence ∙ 1000
same,Mean NFκB response,"[1]; 0.3 µM, 13,5 h",28203.30 GFP+-cells/confluence ∙ 1000
same,Mean NFκB response,"[1]; 0.3 µM, 16,6 h",34624.31 GFP+-cells/confluence ∙ 1000
same,Mean NFκB response,"[1]; 0.3 µM, 19,5 h",39396.74 GFP+-cells/confluence ∙ 1000
same,Mean NFκB response,"[1]; 0.3 µM, 22,5 h",42069.32 GFP+-cells/confluence ∙ 1000
same,Mean NFκB response,"[1]; 0.3 µM, 3 h",2422.37 GFP+-cells/confluence ∙ 1000
same,Mean NFκB response,"[1]; 0.3 µM, 6 h",3882.85 GFP+-cells/confluence ∙ 1000
same,Mean NFκB response,"[1]; 0.3 µM, 9 h",13703.44 GFP+-cells/confluence ∙ 1000
same,Mean NFκB response,"[1]; 0.3 µM, 12 h",24104.26 GFP+-cells/confluence ∙ 1000
same,Mean NFκB response,"[1]; 0.3 µM, 15 h",31750.86 GFP+-cells/confluence ∙ 1000
same,Mean NFκB response,"[1]; 0.3 µM, 18 h",37025.53 GFP+-cells/confluence ∙ 1000
same,Mean NFκB response,"[1]; 0.3 µM, 21 h",40865.92 GFP+-cells/confluence ∙ 1000
same,Mean NFκB response,"[1]; 0.3 µM, 24 h",43618.62 GFP+-cells/confluence ∙ 1000
same,ΔTm at 20 µM,FGFR3,0.44 °C
same,ΔTm at 20 µM,MAPK1,0.26 °C
same,ΔTm at 20 µM,BRD4,-2.63 °C
same,Growth rate [GR],HEK293T cells [2]; 0.3 µM,0.54 and 1.52 and 0.90 (2×) and 1.13 and 0.87 and 0.95 and 0.88 and 2.38 and 0.44
same,ΔTm at 20 µM,CDK2,1.16 °C
same,Necrosis induction [NI],HEK293T cells [3]; 0.3 µM,0.87 and 0.82 and 0.90 and 1.20
same,Apoptosis induction [AI],HEK293T cells [4]; 0.3 µM,0.73 and 0.80 and 0.66 and 1.02 and 0.52 and 0.91
same,Metabolic activity [MA],HEK293T cells [5]; 0.3 µM,1.05 (2×) and 0.84 and 0.94 and 1.07 and 0.99 (2×) and 1.13
same,ΔTm at 20 µM,TRIM24,-1.35 °C
same,activity at 0.3 µM,"[6]; Homo sapiens, HeLa, 0.3 µM, single replicates n=1 to n=5, read-out: ER stress [rel. ATF6 activity]",96%
same,ΔTm at 20 µM,BRPF1,-2.21 °C
same,ΔTm at 20 µM,ABL1,0.26 °C
same,IC50,"NR3B3 (ERRγ); (lit.), read-out: Potency [nM] IC50, NR3B3 (ERRγ)",13 ± 2 nM
same,ΔTm at 20 µM,AURKA,0.19 °C
CC(C)c1ccc(/C=N/NC(=O)c2ccc(O)cc2)cc1 [GSK4716],Mean NFκB response,"[1]; 3 µM, 1,5 h",3350.67 GFP+-cells/confluence ∙ 1000
same,Mean NFκB response,"[1]; 3 µM, 4,5 h",4011.96 GFP+-cells/confluence ∙ 1000
same,Mean NFκB response,"[1]; 3 µM, 7,5 h",8902.65 GFP+-cells/confluence ∙ 1000
same,Mean NFκB response,"[1]; 3 µM, 10,5 h",19241.33 GFP+-cells/confluence ∙ 1000
same,Mean NFκB response,"[1]; 3 µM, 13,5 h",27824.67 GFP+-cells/confluence ∙ 1000
same,Mean NFκB response,"[1]; 3 µM, 16,6 h",34184.33 GFP+-cells/confluence ∙ 1000
same,Mean NFκB response,"[1]; 3 µM, 19,5 h",38593.33 GFP+-cells/confluence ∙ 1000
same,Mean NFκB response,"[1]; 3 µM, 22,5 h",41930.00 GFP+-cells/confluence ∙ 1000
same,Mean NFκB response,"[1]; 3 µM, 3 h",3264.72 GFP+-cells/confluence ∙ 1000
same,Mean NFκB response,"[1]; 3 µM, 6 h",5255.77 GFP+-cells/confluence ∙ 1000
same,Mean NFκB response,"[1]; 3 µM, 9 h",14135.33 GFP+-cells/confluence ∙ 1000
same,Mean NFκB response,"[1]; 3 µM, 12 h",23629.33 GFP+-cells/confluence ∙ 1000
same,Mean NFκB response,"[1]; 3 µM, 15 h",31599.67 GFP+-cells/confluence ∙ 1000
same,Mean NFκB response,"[1]; 3 µM, 18 h",36410.00 GFP+-cells/confluence ∙ 1000
same,Mean NFκB response,"[1]; 3 µM, 21 h",40543.33 GFP+-cells/confluence ∙ 1000
same,Mean NFκB response,"[1]; 3 µM, 24 h",43546.67 GFP+-cells/confluence ∙ 1000
same,ΔTm at 20 µM,FGFR3,0.7 °C
same,ΔTm at 20 µM,MAPK1,0.09 °C
same,ΔTm at 20 µM,BRD4,-0.72 °C
same,ΔTm at 20 µM,CSNK1D,-0.73 °C
same,Growth rate [GR],HEK293T cells [2]; 3 µM,0.56 and 4.17 and 0.59 and 0.95 and 0.79 and 0.39 and 0.32 and 1.23 and 0.96 and 33.22
same,ΔTm at 20 µM,CDK2,1.04 °C
same,Necrosis induction [NI],HEK293T cells [3]; 3 µM,0.73 and 0.72 and 1.06 and 0.88
same,Apoptosis induction [AI],HEK293T cells [4]; 3 µM,1.16 and 0.91 and 0.96 and 0.89 and 0.51 and 0.66
same,Metabolic activity [MA],HEK293T cells [5]; 3 µM,1.04 and 0.92 and 0.86 and 0.83 and 0.84 (2×) and 0.81 and 0.76
same,ΔTm at 20 µM,TRIM24,0.64 °C
same,ATF6 activity (tunicamycin-induced endoplasmic reticulum stress),"[6]; Hela ATF6 reporter cells, tunicamycin 100 ng/mL, 18 h, compounds at recommended concentrations, n = 5",strongly ameliorated the tunicamycin-induced endoplasmic reticulum stress
same,activity at 3 µM,"[6]; Homo sapiens, HeLa, 3 µM, single replicates n=1 to n=5, read-out: ER stress [rel. ATF6 activity]",15%
same,ΔTm at 20 µM,BRPF1,0.6 °C
same,ΔTm at 20 µM,ABL1,1.07 °C
same,"rel. activity from literature, NR3B3 (ERRγ): fold activation",NR3B3 (ERRγ),6 fold
same,VP16 control [fold reporter gene activity],Gal4-VP16,1.46 fold reporter gene activity and 1.30 fold reporter gene activity and 1.47 fold reporter gene activity
same,ΔTm at 20 µM,GSK3B,-3.45 °C
same,"rel. activity from literature, NR3B2 (ERRβ): fold activation",NR3B2 (ERRβ),10 fold
same,ΔTm at 20 µM,AURKA,0.71 °C
